Like-named read-outs stand apart in the source and are kept apart here.
Biological target: T1, BCL6 (Homo sapiens, UniProt P41182)
T1 construct: endogenous in cells; host or cells: T47D breast cancer epithelial cells
Assay: Immunofluorescence protocol for high content imaging of BCL6 (degradation) in T47D cells, 3 days compound treatment
Assay type: cell-based
Conditions: for DC50: read-out: Mean DC50 (nM)* category; for Dmax: read-out: Mean Dmax (%)** category
Outline: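 For degradation, compound series (3-fold, 11 points, top 0.1 or 1 μM final) were added to adherent T47D cultures for 3 days. BCL6 immunostaining used a rabbit antibody at 1:300 and an Alexa-488 secondary, with imaging at 10× magnification.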

[1] = T47D cells, 3 days compound treatment

| SMILES | DC50 [1] [nM] | Dmax [1] [%] | Dmax (T47D) [%] | DC50 [nM] |
| --- | --- | --- | --- | --- |
| CNC(=O)COc1cc2cc(Nc3nc(N4CCC(O[C@H]5C[C@H](N6CC[C@@H](c7ccc8c(c7F)CN([C@H]7CCC(=O)NC7=O)C8=O)C[C@H]6C)C5)CC4)ncc3Cl)ccc2n(C(C)C)c1=O [Compound 294, 2-({6-[(5-chloro-2-{4-[(1r,3r)-3-[(2R,4R)-4-{2-[(3S)-2,6-dioxopiperidin-3-yl]-4-fluoro-1-oxo-2,3-dihydro-1H-isoindol-5-yl}-2-methylpiperidin-1-yl]cyclobutoxy]piperidin-1-yl}pyrimidin-4-yl)amino]-2-oxo-1-(propan-2-yl)-1,2-dihydroquinolin-3-yl}oxy)-N-methylacetamide] |  |  | ≥ 70 | < 10 |
| CNC(=O)COc1cc2cc(Nc3nc(N4CCC(F)(CN5CCC6(CC5)CN(c5cccc7c5C(=O)N(C5CCC(=O)NC5=O)C7=O)C6)CC4)ncc3Cl)ccc2n(C(C)C)c1=O (centres unmarked) [Compound 44, 2-{[6-({5-chloro-2-[4-({2-[2-(2,6-dioxopiperidin-3-yl)-1,3-dioxo-2,3-dihydro-1H-isoindol-4-yl]-2,7-diazaspiro [3.5]nonan-7-yl}methyl)-4-fluoropiperidin-1-yl]pyrimidin-4-yl}amino)-2-oxo-1-(propan-2-yl)-1,2-dihydroquinolin-3-yl]oxy}-N-methylacetamide] | < 10 | ≥ 70 |  |  |
| CNC(=O)COc1cc2cc(Nc3nc(N4CCC(O[C@H]5C[C@H](N6CCC7(CC6)CN(c6ccc8c(c6)C(=O)N(C6CCC(=O)NC6=O)C8=O)C7)C5)CC4)ncc3Cl)ccc2n(C(C)C)c1=O (some centres unmarked) [Compound 357, 2-({6-[(5-chloro-2-{4-[(1r,3r)-3-{2-[2-(2,6-dioxopiperidin-3-yl)-1,3-dioxo-2,3-dihydro-1H-isoindol-5-yl]-2,7-diazaspiro [3.5]nonan-7-yl}cyclobutoxy]piperidin-1-yl}pyrimidin-4-yl)amino]-2-oxo-1-(propan-2-yl)-1,2-dihydroquinolin-3-yl}oxy)-N-methylacetamide] |  |  | ≥ 70 | < 10 |
| CNC(=O)COc1cc2cc(Nc3nc(N4CCC(OC5CCC6(CC5)CN(c5cc(F)cc7c5CN(C5CCC(=O)NC5=O)C7=O)C6)CC4)ncc3Cl)ccc2n(C(C)C)c1=O (centres unmarked) [Compound 299, 2-{[6-({5-chloro-2-[4-({2-[2-(2,6-dioxopiperidin-3-yl)-6-fluoro-1-oxo-2,3-dihydro-1H-isoindol-4-yl]-2-azaspiro[3.5]nonan-7-yl}oxy)piperidin-1-yl]pyrimidin-4-yl}amino)-2-oxo-1-(propan-2-yl)-1,2-dihydroquinolin-3-yl]oxy}-N-methylacetamide] |  |  | 50 to 70 | < 10 |
| CNC(=O)COc1cc2cc(Nc3nc(N4CCN(C(C)(C)C5CCN(c6cc7c(cc6F)C(=O)N(C6CCC(=O)NC6=O)C7)CC5)CC4)ncc3Cl)ccc2n(C(C)C)c1=O (centres unmarked) [Compound 68, 2-{[6-({5-chloro-2-[4-(2-{1-[2-(2,6-dioxopiperidin-3-yl)-6-fluoro-1-oxo-2,3-dihydro-1H-isoindol-5-yl]piperidin-4-yl}propan-2-yl)piperazin-1-yl]pyrimidin-4-yl}amino)-2-oxo-1-(propan-2-yl)-1,2-dihydroquinolin-3-yl]oxy}-N-methylacetamide] | < 10 | 50 to 70 |  |  |
| CNC(=O)COc1cc2cc(Nc3nc(N4CCC(O[C@H]5C[C@H](N6CC[C@H](c7ccc8c(c7F)CN(C7CCC(=O)NC7=O)C8=O)C(C)(C)C6)C5)CC4)ncc3Cl)ccc2n(C(C)C)c1=O (stereo partly drawn) [Compound 431, 2-({6-[(5-chloro-2-{4-[(1r,3r)-3-[(4S)-4-[2-(2,6-dioxopiperidin-3-yl)-4-fluoro-1-oxo-2,3-dihydro-1H-isoindol-5-yl]-3,3-dimethylpiperidin-1-yl]cyclobutoxy]piperidin-1-yl}pyrimidin-4-yl)amino]-2-oxo-1-(propan-2-yl)-1,2-dihydroquinolin-3-yl}oxy)-N-methylacetamide] |  |  | ≥ 70 | < 10 |
| CNC(=O)COc1cc2cc(Nc3nc(N4CCC(F)(CN5CC(N6CCC(c7ccc8c(c7F)CN(C7CCC(=O)NC7=O)C8=O)CC6)C5)CC4)ncc3Cl)ccc2n(C(C)C)c1=O (centres unmarked) [Compound 285, 2-({6-[(5-chloro-2-{4-[(3-{4-[2-(2,6-dioxopiperidin-3-yl)-4-fluoro-1-oxo-2,3-dihydro-1H-isoindol-5-yl]piperidin-1-yl}azetidin-1-yl)methyl]-4-fluoropiperidin-1-yl}pyrimidin-4-yl)amino]-2-oxo-1-(propan-2-yl)-1,2-dihydroquinolin-3-yl}oxy)-N-methylacetamide] |  |  | ≥ 70 | < 10 |
| CNC(=O)COc1cc2cc(Nc3nc(N4CCC(O[C@H]5C[C@H](N6CCC(c7cc(F)c8c(c7F)CN([C@H]7CCC(=O)NC7=O)C8=O)CC6)C5)CC4)ncc3Cl)ccc2n(C(C)C)c1=O [Compound 188, 2-({6-[(5-chloro-2-{4-[(1r,3r)-3-(4-{2-[(3S)-2,6-dioxopiperidin-3-yl]-4,7-difluoro-1-oxo-2,3-dihydro-1H-isoindol-5-yl}piperidin-1-yl)cyclobutoxy]piperidin-1-yl}pyrimidin-4-yl)amino]-2-oxo-1-(propan-2-yl)-1,2-dihydroquinolin-3-yl}oxy)-N-methylacetamide] | < 10 | ≥ 70 |  |  |
| CNC(=O)COc1cc2cc(Nc3nc(N4CCC(O[C@H]5C[C@H](N6CCC7(CCN(c8ccc9c(c8)CN(C8CCC(=O)NC8=O)C9=O)C7)C6)C5)CC4)ncc3Cl)ccc2n(C(C)C)c1=O (some centres unmarked) [Compound 346, 2-({6-[(5-chloro-2-{4-[(1r,3r)-3-{7-[2-(2,6-dioxopiperidin-3-yl)-1-oxo-2,3-dihydro-1H-isoindol-5-yl]-2,7-diazaspiro [4.4]nonan-2-yl}cyclobutoxy]piperidin-1-yl}pyrimidin-4-yl)amino]-2-oxo-1-(propan-2-yl)-1,2-dihydroquinolin-3-yl}oxy)-N-methylacetamide] |  |  | ≥ 70 | < 10 |
| CNC(=O)COc1cc2cc(Nc3nc(N4CCN(CC5CCC6(CC5)CN(c5ccc(F)c7c5CN(C5CCC(=O)NC5=O)C7=O)C6)CC4)ncc3Cl)ccc2n(C(C)C)c1=O (centres unmarked) [Compound 316, 2-{[6-({5-chloro-2-[4-({2-[2-(2,6-dioxopiperidin-3-yl)-7-fluoro-1-oxo-2,3-dihydro-1H-isoindol-4-yl]-2-azaspiro[3.5]nonan-7-yl}methyl)piperazin-1-yl]pyrimidin-4-yl}amino)-2-oxo-1-(propan-2-yl)-1,2-dihydroquinolin-3-yl]oxy}-N-methylacetamide] |  |  | 50 to 70 | < 10 |
| CC[C@@H]1CN([C@H]2C[C@H](OC3CCN(c4ncc(Cl)c(Nc5ccc6c(c5)cc(OCC(=O)NC)c(=O)n6C(C)C)n4)CC3)C2)CCN1c1ccc2c(c1C)C(=O)N(C1CCC(=O)NC1=O)C2=O (stereo partly drawn) [Compound 287, 2-({6-[(5-chloro-2-{4-[(1r,3r)-3-[(3R)-4-[2-(2,6-dioxopiperidin-3-yl)-4-methyl-1,3-dioxo-2,3-dihydro-1H-isoindol-5-yl]-3-ethylpiperazin-1-yl]cyclobutoxy]piperidin-1-yl}pyrimidin-4-yl)amino]-2-oxo-1-(propan-2-yl)-1,2-dihydroquinolin-3-yl}oxy)-N-methylacetamide] |  |  | ≥ 70 | < 10 |
| CNC(=O)COc1cc2cc(Nc3nc(N4CCC(O[C@H]5C[C@H](N6C[C@H](C)N(c7ccc8c(c7)CN(C7CCC(=O)NC7=O)C8=O)[C@@H](C)C6)C5)CC4)ncc3Cl)ccc2n(C(C)C)c1=O (relative stereo) [Compound 180, 2-({6-[(5-chloro-2-{4-[(1r,3r)-3-[(3R*,5R*)-4-[2-(2,6-dioxopiperidin-3-yl)-1-oxo-2,3-dihydro-1H-isoindol-5-yl]-3,5-dimethylpiperazin-1-yl]cyclobutoxy]piperidin-1-yl}pyrimidin-4-yl)amino]-2-ox0-1-(propan-2-yl)-1,2-dihydroquinolin-3-yl}oxy)-N-methylacetamide] | < 10 | ≥ 70 |  |  |

Second part, led by results:

| DC50 [1] [nM] | Dmax [1] [%] | SMILES | Dmax (T47D) [%] | DC50 [nM] |
| --- | --- | --- | --- | --- |
| < 10 | 50 to 70 | CNC(=O)COc1cc2cc(Nc3nc(N4CCC(CN5CCC6(CC5)CN(c5ccc7c(c5)C(=O)N(C5CCC(=O)NC5=O)C7=O)C6)CC4)ncc3Cl)cc(F)c2n(C(C)C)c1=O (centres unmarked) [Compound 111, 2-{[6-({5-chloro-2-[4-({2-[2-(2,6-dioxopiperidin-3-yl)-1,3-dioxo-2,3-dihydro-1H-isoindol-5-yl]-2,7-diazaspiro[3.5]nonan-7-yl}methyl)piperidin-1-yl]pyrimidin-4-yl}amino)-8-fluoro-2-oxo-1-(propan-2-yl)-1,2-dihydroquinolin-3-yl]oxy}-N-methylacetamide] |  |  |
| < 10 | < 50 | CNC(=O)COc1cc2cc(Nc3nc(N4CCC(CN5CC6(CCN(c7ccc8c(c7OC)CN(C7CCC(=O)NC7=O)C8=O)CC6)C5)CC4)ncc3Cl)ccc2n(C(C)C)c1=O (centres unmarked) [Compound 88, 2-{[6-({5-chloro-2-[4-({7-[2-(2,6-dioxopiperidin-3-yl)-4-methoxy-1-oxo-2,3-dihydro-1H-isoindol-5-yl]-2,7-diazaspiro[3.5]nonan-2-yl}methyl)piperidin-1-yl]pyrimidin-4-yl}amino)-2-oxo-1-(propan-2-yl)-1,2-dihydroquinolin-3-yl]oxy}-N-methylacetamide] |  |  |
| 10 to 50 |  | CNC(=O)COc1cc2cc(Nc3nc(N4CCC5(CCN(CC6(F)CCN(c7c(F)ccc8c7C(=O)N(C7CCC(=O)NC7=O)C8)CC6)CC5)CC4)ncc3Cl)ccc2n(C(C)C)c1=O (centres unmarked) [Compound 152, 2-{[6-({5-chloro-2-[9-({1-[2-(2,6-dioxopiperidin-3-yl)-5-fluoro-3-oxo-2,3-dihydro-1H-isoindol-4-yl]-4-fluoropiperidin-4-yl}methyl)-3,9-diazaspiro[5.5]undecan-3-yl]pyrimidin-4-yl}amino)-2-oxo-1-(propan-2-yl)-1,2-dihydroquinolin-3-yl]oxy}-N-methylacetamide] |  |  |

From patent publication US11986532B2 (Arvinas Operations, Inc., priority 2021, dated 2024)
